From US9499614B2, “Methods for modulating protein glycosylation profiles of recombinant protein therapeutics using monosaccharides and oligosaccharides” (AbbVie, Inc., priority 2013, dated 2016)

Legend:
Assay type in all cases: cell-based, Chinese Hamster
[1] = system: Cell Line 1; assay: N-glycan oligosaccharide profiling, Cell Line 1 shake flasks (Example 1)
Procedure: (§1) Two recombinant Chinese Hamster Ovary (CHO) cell lines expressing two different humanized monoclonal antibodies (Antibody 1, Antibody 2) were evaluated in two different culture vessels (shaker flasks and laboratory scale bioreactors). Both cell lines were of CHO DUX-B11 origin based on a dhfr (dihydrofolate reductase) expression system. Both cell lines were cultured in the same chemically defined basal media (CDBM), with Cell Line 1 also utilizing a chemically-defined feed media (CDFM). Each of the respective media were supplemented with selected monosaccharides and oligosaccharides to evaluate their potential impact on the resulting N-glycan oligosaccharide profile. In preparing the cultures, the cell lines were serially expanded through separate seed train inoculums to generate enough cells for inoculation.
(§2) Purified antibodies subjected to additional analytical characterization were purified using MabSelect™ Protein A (GE Healthcare, Piscataway, N.J.) using a low pH, step elution gradient, followed by buffer exchange using Corning Lifesciences (Tewksbury, Mass.) Spin Concentrator X UF columns according to the manufacturers' recommended procedures.
(§3) Approximately 200 μg of Protein A purified samples from Cell Lines 1 and 2 were treated with N-glycanase at 37° C. overnight to remove the N-glycans from the protein. The protein was precipitated and the supernatant was taken for subsequent chemical derivatization of the reducing end of the released glycans with 2-aminobenzamide (2-AB) dye. Following the derivatization step, the excess label was removed using clean up cartridges and the samples were analyzed using normal phase HPLC with fluorescent detection. Mobile phase A was 100% acetonitrile and mobile phase B was 50 mM ammonium formate pH 4.4. The glycans were eluted from a polyamide column (Prozyme, Hayward, Calif.) using a shallow gradient. The labeled glycans were detected using a fluorescence detector with an excitation wavelength of 330 nm and an emission wavelength of 420 nm.
Cell Line 1 was cultured in shake flasks in fedbatch mode after an abbreviated seed train. Sucrose and tagatose were supplemented into chemically-defined basal and feed media at concentrations of 30, 50, and 70 mM, and compared to an unsupplemented control condition. The viable cell density (VCD), viability, and harvest titer results are shown in FIGS. 3A-3C and FIGS. 5A-5C for the sucrose, and tagatose conditions, respectively. Both sugars facilitated a slight decrease in VCD, with the higher concentrations also supporting the lowest peak VCD. […] As such, the upper threshold of sucrose or tagatose concentration should not be exceeded.

[2] = system: Cell Line 1; assay: N-glycan oligosaccharide profiling, Cell Line 1 in 3 L laboratory-scale bioreactors; settings: 50 mM supplement vs control
Procedure: as §2, §3
3 L scale-down model bioreactors were utilized to verify the impact of select sugars on the resulting protein glycosylation profiles. The concentration of the sucrose and tagatose was chosen to minimize any potential adverse impact on cell growth and productivity, but still facilitate a measurable modulation of the glycosylation profile. Cell culture process performance indicators were monitored and measured throughout the respective cultures. Viable cell density, cell viability, lactate, pCO2, osmolality, harvest titer, and harvest N-glycan oligosaccharide data were measured and reported.
3 L scale laboratory bioreactors were utilized to verify the impact of sucrose, tagatose, or fructose on protein glycosylation profiles. Concentrations of the sugars were chosen to minimize any potential adverse impacts on cell growth and productivity, but still facilitate a measurable impact on the glycoform profile. Cell culture process performance indicators were monitored and measured throughout the study. Viable cell density, cell viability, lactate, pCO2, osmolality, harvest titer, and harvest N-glycan oligosaccharide data was measured and reported.

[3] = system: Cell Line 2; assay: Shake flask semi-fedbatch culture of Cell Line 2, cell culture performance (Example 1); settings: 7 mM
Procedure: as §1
Viable cell density (VCD) and cell viability values were measured through trypan blue exclusion via Cedex automated cell counters (Roche Applied Science, Indianapolis, Ind.), glucose and lactate values were measured with a ABL-805 (Radiometer Medical, Denmark) blood gas analyzer. Offline pH, dissolved oxygen (DO), and pCO2 measurements were performed with a ABL-805 (Radiometer Medical, Denmark) blood gas analyzer. Osmolality was measured on a Multi-Osmette 2430 osmometer (Precision Systems, Natick, Mass.).
Antibody titers were measured from crude cell culture harvests on a Poros A™ (Life Technologies, Carlsbad, Calif.) affinity column using an Agilent (Santa Clara, Calif.) 1200 Series HPLC, or equivalent, operating with a low pH, step elution gradient with detection at 280 nm. Absolute concentrations were assigned with respect to reference standard calibration curves.
Cell Line 2 was evaluated in shake flask culture in semi-fedbatch mode. Sucrose was supplemented into the basal media at various concentrations to evaluate the resulting impact on cell culture performance, as well as the protein glycosylation profile. […] There was however, a very significant impact on the protein glycosylation profiles of harvest samples across all sucrose concentrations evaluated (FIG. 12). […]

[4] = system: Cell Line 2; assay: N-glycan oligosaccharide profiling, Cell Line 2 shake flasks (Example 1); settings: 30 mM supplement vs control
Procedure: as §1, §2, §3
Cell Line 2 was evaluated in shake flask culture in semi-fedbatch mode. Sucrose was supplemented into the basal media at various concentrations to evaluate the resulting impact on cell culture performance, as well as the protein glycosylation profile. On average, 7 mM, 15 mM, and 30 mM sucrose all nominally impacted overall cell growth, with only slight drops in peak viable cell density (1×10^6-2×10^6 cells/mL) as compared to the unsupplemented control. […] There was however, a very significant impact on the protein glycosylation profiles of harvest samples across all sucrose concentrations evaluated (FIG. 12). A concentration-dependent modulation of protein glycosylation was observed that was consistent with the results obtained for Cell Line 1.

[5] = 70 mM supplement, absolute % change vs control

Which results are given for `OC[C@H]1O[C@@](CO)(O[C@H]2O[C@H](CO)[C@@H](O)[C@H](O)[C@H]2O)[C@@H](O)[C@@H]1O` [sucrose]?
cumulative increase in overall mannosylated N-glycans ([1]; 70 mM supplement vs control): 43%; decrease in NGA2F species ([1]; 70 mM supplement vs control): 51%; increase in NGA2F-GlcNAc species ([1]; 70 mM supplement vs control): 7%; overall decrease in fucosylation level ([1]; 70 mM supplement vs control): 44%; increase in Man 5 species [1, 5]: 24%; increase in Man 6 species [1, 5]: 12%; increase in Man 7 species [1, 5]: 7%; Man 5 increase [2]: 16%; Man 6 increase [2]: 5%; Man 7 increase [2]: 3%; decrease in NA1F [2]: 3%; decrease in NGA2F species [2]: 29%; increase in NA1F-GlcNAc [2]: 1%; increase in NGA2F-GlcNAc [2]: 7%; increase in overall mannosylation [2]: 24%; overall decrease in fucosylation [2]: 24%; cell viability ([3]; 15 mM and 30 mM): not significantly different from each other; harvest titer ([3]; 15 mM and 30 mM): not significantly different from each other; drop in peak viable cell density ([3]; 15 mM and 30 mM vs control): 1×10^6-2×10^6 cells/mL; cumulative increase in overall mannosylated N-glycans [4]: 19%; drop in NGA2F species [4]: 27%; drop in overall fucosylation [4]: 19%; increase in Man 5 species [4]: ≤ 17%; increase in Man 6 species [4]: 1%; increase in Man 7 species [4]: 1%

Which results are given for `O=C(CO)[C@@H](O)[C@@H](O)[C@H](O)CO` [tagatose]?
cumulative increase in overall mannosylated N-glycans ([1]; 70 mM supplement vs control): 20%; decrease in NGA2F species ([1]; 70 mM supplement vs control): 30%; overall decrease in fucosylation level ([1]; 70 mM supplement vs control): 23%; increase in Man 5 species [1, 5]: ≤ 10%; increase in Man 6 species [1, 5]: 6%; increase in Man 7 species [1, 5]: 3%; increase in Man 8 species [1, 5]: 1%; Man 5 increase [2]: 7%; Man 6 increase [2]: 2%; Man 7 increase [2]: 1%; decrease in NA1F [2]: 3%; decrease in NGA2F species [2]: 15%; increase in NA1F-GlcNAc [2]: 1%; increase in NGA2F-GlcNAc [2]: 6%; increase in overall mannosylation [2]: 10%; overall decrease in fucosylation [2]: 11%
